The source of these data is paper PMC6437697 (Journal of Medicinal Chemistry, 2019).

Structures are written as SMILES.

Holding throughout (assay): KINOMEscan
Assay [1] has as its target T1, ABL1(Y253F)-phosphorylated (Homo sapiens, UniProt P00519, Y253F).
T1 construct: purchased Eurofins DiscoverX KINOMEscan
In kind it is binding. Conditions: read-out: % control activity remaining.

The next assay deals with T2, GRK4 (Homo sapiens, UniProt P32298).
T2 construct: purchased Eurofins DiscoverX KINOMEscan
In kind it is binding. As to conditions: read-out: % control activity remaining.

A further assay has as its target T3, FRK (Homo sapiens, UniProt P42685).
T3 construct: purchased Eurofins DiscoverX KINOMEscan
In kind it is binding. Conditions: read-out: % control activity remaining.

The target in a further assay is T4, MEK5 (Homo sapiens, UniProt Q13163).
T4 construct: purchased Eurofins DiscoverX KINOMEscan
T4 sequence (Q13163 1-448): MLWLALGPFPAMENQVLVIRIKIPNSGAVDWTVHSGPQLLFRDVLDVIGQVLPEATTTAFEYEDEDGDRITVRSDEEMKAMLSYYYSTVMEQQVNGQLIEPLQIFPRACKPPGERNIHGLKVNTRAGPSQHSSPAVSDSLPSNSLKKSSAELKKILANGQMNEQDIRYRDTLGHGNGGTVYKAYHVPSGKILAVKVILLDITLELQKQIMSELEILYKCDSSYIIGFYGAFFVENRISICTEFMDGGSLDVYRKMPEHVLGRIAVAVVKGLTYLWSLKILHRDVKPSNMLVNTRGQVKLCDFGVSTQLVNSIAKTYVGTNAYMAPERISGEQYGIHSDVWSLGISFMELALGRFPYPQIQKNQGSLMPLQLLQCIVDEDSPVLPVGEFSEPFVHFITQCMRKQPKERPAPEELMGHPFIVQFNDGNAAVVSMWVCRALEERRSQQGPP
In kind it is binding. Conditions: read-out: % control activity remaining.

For the next assay, the target named is T5, EPHA2 (Homo sapiens, UniProt P29317).
T5 construct: purchased Eurofins DiscoverX KINOMEscan
T5 sequence (P29317 24-976): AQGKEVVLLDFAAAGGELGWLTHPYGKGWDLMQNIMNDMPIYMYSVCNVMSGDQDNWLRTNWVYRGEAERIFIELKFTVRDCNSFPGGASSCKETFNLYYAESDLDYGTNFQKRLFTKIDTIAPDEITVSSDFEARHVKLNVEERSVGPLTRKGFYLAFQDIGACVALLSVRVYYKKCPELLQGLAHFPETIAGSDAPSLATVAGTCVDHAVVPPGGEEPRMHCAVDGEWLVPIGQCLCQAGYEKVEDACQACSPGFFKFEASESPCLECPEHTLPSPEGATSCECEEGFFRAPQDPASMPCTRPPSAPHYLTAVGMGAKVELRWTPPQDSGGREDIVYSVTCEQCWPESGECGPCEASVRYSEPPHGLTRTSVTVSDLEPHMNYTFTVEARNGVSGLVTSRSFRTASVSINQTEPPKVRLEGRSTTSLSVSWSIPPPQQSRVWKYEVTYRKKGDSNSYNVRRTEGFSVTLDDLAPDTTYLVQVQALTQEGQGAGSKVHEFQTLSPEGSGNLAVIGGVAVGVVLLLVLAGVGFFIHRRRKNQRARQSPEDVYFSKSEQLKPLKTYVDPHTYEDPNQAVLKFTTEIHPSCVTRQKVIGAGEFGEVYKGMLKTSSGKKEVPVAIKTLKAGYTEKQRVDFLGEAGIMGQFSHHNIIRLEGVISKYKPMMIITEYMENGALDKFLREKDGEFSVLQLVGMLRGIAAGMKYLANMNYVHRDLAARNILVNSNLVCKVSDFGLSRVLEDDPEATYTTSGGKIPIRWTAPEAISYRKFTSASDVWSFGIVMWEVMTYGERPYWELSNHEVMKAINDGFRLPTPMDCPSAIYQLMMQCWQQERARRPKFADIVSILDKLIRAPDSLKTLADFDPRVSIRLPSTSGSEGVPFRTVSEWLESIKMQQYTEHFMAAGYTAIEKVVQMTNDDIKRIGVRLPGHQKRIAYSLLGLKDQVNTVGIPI
In kind it is binding. As to conditions: read-out: % control activity remaining.

Another assay deals with T6, VEGFR2 (Homo sapiens, UniProt P35968).
T6 construct: purchased Eurofins DiscoverX KINOMEscan
In kind it is binding. As to conditions: read-out: % control activity remaining.

For another assay, the target named is T7, STK36 (Homo sapiens, UniProt Q9NRP7).
T7 construct: purchased Eurofins DiscoverX KINOMEscan
T7 sequence (Q9NRP7 1-1315): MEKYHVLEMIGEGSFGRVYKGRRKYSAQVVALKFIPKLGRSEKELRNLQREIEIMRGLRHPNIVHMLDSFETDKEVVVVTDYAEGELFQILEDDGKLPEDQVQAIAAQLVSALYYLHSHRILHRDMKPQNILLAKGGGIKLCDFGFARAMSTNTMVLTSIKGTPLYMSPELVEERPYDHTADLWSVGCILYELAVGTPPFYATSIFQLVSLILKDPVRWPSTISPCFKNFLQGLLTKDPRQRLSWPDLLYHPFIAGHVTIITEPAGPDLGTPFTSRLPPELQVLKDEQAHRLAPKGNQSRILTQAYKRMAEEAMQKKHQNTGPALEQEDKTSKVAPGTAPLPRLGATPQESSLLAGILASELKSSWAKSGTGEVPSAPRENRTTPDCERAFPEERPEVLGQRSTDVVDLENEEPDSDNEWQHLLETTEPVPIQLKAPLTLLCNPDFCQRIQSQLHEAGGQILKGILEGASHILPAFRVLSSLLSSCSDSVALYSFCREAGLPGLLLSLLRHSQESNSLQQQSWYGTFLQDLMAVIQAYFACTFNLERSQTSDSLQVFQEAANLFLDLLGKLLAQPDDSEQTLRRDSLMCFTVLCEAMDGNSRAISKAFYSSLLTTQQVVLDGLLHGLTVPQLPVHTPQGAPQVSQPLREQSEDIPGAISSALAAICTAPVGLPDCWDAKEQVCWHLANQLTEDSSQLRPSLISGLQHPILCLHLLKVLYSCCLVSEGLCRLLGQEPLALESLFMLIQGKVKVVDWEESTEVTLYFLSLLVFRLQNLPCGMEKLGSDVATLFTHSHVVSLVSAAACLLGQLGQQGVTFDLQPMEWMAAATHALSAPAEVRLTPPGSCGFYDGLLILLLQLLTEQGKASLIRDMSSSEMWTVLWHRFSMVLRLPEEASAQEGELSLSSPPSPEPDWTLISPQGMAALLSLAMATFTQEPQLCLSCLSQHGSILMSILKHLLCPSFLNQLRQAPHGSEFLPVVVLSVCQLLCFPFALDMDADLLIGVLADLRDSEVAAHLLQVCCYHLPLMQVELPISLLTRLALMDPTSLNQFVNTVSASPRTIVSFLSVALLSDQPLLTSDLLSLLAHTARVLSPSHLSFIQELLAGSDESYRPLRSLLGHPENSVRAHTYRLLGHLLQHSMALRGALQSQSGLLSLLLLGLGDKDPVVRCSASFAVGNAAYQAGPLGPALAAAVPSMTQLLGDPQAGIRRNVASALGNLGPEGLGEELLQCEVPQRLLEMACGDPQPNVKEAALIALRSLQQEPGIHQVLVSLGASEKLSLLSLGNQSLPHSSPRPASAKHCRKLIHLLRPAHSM
In kind it is binding. As to conditions: read-out: % control activity remaining.

A further assay concerns the target T8, p38-gamma (Homo sapiens, UniProt P53778).
T8 construct: purchased Eurofins DiscoverX KINOMEscan
T8 sequence (P53778 1-367): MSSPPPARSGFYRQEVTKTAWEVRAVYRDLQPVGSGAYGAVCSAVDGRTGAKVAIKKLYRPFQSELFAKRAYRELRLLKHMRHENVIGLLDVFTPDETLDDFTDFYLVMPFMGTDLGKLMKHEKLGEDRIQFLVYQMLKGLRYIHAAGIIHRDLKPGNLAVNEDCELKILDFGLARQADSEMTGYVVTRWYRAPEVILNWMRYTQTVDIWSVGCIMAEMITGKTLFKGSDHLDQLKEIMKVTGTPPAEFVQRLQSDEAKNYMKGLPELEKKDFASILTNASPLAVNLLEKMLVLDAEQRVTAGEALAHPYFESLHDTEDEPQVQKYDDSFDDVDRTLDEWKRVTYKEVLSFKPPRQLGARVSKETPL
In kind it is binding. Conditions: read-out: % control activity remaining.

Another assay concerns the target T9, WEE1 (Homo sapiens, UniProt P30291).
T9 construct: purchased Eurofins DiscoverX KINOMEscan
In kind it is binding. As to conditions: read-out: % control activity remaining.

For another assay, the target named is T10, TIE1 (Homo sapiens, UniProt P35590).
T10 construct: purchased Eurofins DiscoverX KINOMEscan
T10 sequence (P35590 22-1138): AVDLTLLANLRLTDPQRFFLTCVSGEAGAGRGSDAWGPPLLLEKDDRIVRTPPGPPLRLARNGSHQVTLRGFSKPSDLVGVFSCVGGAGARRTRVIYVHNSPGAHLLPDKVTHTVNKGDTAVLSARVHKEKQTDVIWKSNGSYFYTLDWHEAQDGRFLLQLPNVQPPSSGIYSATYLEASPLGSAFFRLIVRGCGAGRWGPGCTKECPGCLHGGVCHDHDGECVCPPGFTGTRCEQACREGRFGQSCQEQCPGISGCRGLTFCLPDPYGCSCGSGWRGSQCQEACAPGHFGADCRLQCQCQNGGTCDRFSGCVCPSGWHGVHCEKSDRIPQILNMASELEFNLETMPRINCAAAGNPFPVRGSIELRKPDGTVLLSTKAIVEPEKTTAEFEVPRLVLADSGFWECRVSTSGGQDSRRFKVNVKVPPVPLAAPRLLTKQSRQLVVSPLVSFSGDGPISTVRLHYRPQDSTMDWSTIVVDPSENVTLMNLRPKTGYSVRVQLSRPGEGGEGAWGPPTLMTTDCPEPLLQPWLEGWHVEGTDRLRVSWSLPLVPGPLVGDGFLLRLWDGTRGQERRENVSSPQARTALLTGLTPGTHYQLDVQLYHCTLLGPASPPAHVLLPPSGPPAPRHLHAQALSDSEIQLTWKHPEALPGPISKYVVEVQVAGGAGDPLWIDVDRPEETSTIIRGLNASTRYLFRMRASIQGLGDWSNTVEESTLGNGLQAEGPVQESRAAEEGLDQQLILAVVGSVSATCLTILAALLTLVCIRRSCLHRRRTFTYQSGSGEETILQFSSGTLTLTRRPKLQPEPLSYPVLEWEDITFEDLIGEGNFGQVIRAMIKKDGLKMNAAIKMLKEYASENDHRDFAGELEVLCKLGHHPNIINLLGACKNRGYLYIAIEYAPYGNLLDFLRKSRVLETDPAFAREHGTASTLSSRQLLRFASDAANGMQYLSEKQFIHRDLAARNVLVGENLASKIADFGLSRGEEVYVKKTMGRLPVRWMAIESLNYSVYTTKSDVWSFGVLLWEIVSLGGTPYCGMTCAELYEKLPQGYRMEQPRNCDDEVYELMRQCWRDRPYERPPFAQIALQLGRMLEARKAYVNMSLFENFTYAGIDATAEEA
In kind it is binding. Conditions: read-out: % control activity remaining.

Assay [2] has as its target T11, RSK3(Kin.Dom.1-N-terminal) (Homo sapiens, UniProt Q15349).
T11 construct: RSK3(Kin.Dom.1-N-terminal); purchased Eurofins DiscoverX KINOMEscan
In kind it is binding. Conditions: read-out: % control activity remaining.

For another assay, the system named is FLT3(ITD). In kind it is binding, human. As to conditions: 1000 nM.
Another assay concerns the target T12, HIPK1 (Homo sapiens, UniProt Q86Z02).
T12 construct: purchased Eurofins DiscoverX KINOMEscan
In kind it is binding. Conditions: read-out: % control activity remaining.

A further assay deals with T13, PRKR (Homo sapiens, UniProt P19525).
T13 construct: purchased Eurofins DiscoverX KINOMEscan
In kind it is binding. Conditions: read-out: % control activity remaining.

In a further assay the target is T14, CAMKK1 (Homo sapiens, UniProt Q8N5S9).
T14 construct: purchased Eurofins DiscoverX KINOMEscan
T14 sequence (Q8N5S9 whole entry): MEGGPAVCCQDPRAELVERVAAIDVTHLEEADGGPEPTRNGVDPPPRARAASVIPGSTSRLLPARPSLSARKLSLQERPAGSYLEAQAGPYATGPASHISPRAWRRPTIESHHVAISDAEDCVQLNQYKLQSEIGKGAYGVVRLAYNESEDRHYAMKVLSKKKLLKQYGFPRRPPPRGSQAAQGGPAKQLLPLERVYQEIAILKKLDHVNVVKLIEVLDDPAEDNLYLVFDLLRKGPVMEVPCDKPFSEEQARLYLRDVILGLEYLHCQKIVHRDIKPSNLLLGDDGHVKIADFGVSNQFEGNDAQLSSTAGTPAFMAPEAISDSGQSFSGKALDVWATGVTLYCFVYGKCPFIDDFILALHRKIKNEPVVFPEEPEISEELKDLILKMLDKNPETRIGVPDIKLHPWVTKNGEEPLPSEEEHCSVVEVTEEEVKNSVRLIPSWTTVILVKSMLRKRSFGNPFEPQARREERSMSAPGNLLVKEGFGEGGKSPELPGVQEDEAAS
In kind it is binding. As to conditions: read-out: % control activity remaining.

T11 sequence (Q15349 59-318 limits assumed): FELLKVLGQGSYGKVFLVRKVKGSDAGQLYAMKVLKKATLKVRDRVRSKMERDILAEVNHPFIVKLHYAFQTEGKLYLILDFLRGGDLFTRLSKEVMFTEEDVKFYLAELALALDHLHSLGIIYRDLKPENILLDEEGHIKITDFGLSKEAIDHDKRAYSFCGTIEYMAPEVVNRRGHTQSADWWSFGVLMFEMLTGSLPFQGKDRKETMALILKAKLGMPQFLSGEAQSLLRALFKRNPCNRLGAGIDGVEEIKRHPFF
T3 sequence (P42685 whole entry): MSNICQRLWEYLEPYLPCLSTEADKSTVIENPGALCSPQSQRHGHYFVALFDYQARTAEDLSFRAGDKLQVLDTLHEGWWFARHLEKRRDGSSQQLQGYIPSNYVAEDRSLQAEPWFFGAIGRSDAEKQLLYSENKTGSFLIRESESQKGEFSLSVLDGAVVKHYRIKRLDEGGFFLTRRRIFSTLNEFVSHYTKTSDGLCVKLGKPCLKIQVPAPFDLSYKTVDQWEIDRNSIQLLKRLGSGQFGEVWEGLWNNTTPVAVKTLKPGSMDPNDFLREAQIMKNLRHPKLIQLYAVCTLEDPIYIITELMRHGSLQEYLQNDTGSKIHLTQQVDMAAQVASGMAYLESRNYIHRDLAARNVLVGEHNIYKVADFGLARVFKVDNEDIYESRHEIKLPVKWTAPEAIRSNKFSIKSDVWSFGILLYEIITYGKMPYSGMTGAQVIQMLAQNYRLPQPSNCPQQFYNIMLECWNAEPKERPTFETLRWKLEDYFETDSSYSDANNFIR
T12 sequence (Q86Z02 whole entry): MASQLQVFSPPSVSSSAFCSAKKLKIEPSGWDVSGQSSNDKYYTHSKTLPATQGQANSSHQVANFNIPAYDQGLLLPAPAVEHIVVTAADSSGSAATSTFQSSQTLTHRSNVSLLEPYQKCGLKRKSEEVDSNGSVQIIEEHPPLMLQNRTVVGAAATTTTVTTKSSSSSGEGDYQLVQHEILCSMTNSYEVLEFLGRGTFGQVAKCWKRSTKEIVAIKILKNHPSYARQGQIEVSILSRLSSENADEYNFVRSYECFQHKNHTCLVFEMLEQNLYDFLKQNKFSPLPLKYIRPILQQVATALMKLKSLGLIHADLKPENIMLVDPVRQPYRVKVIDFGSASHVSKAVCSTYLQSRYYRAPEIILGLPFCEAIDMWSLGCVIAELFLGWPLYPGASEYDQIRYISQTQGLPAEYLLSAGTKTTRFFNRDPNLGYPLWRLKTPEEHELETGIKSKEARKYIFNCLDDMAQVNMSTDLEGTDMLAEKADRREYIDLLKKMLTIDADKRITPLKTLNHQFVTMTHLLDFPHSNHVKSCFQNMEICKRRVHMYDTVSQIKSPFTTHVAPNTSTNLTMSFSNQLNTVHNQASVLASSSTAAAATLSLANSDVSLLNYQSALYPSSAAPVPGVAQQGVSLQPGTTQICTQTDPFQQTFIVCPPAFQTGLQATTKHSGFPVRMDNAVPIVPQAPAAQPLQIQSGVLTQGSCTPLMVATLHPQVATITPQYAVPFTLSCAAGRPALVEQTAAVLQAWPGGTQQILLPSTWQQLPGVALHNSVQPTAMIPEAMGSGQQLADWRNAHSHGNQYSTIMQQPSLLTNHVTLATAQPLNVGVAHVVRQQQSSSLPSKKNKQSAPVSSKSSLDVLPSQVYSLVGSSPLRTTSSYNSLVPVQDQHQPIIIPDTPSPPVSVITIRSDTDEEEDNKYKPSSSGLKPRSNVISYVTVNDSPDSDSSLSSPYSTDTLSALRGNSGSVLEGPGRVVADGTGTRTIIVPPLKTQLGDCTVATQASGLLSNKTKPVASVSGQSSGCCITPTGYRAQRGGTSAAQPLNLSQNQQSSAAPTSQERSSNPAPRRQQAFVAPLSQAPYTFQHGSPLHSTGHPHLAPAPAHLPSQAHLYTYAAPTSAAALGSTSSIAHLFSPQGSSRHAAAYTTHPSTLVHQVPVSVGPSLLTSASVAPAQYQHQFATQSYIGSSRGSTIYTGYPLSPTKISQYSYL

In the case of `Clc1cc(NCC2CC2)c2ncc(-c3ccc4[nH]ncc4c3)n2n1` [compound 2, 6-Chloro-N-(cyclopropylmethyl)-3-(1H-indazol-5-yl)imidazo[1,2-b]pyridazin-8-amine], the remaining binding at 1 µM was found to be 71% in assay [1]; 42% on GRK4; 90% at FRK; 85% on MEK5; 94% at EPHA2; 79% on VEGFR2. Also, the remaining binding at 1 µM on STK36 is 91%; at p38-gamma, 73%; on WEE1, 100%; at TIE1, 99%; in assay [2], 82%; on HIPK1, 42%. Further, the remaining binding at 1 µM was determined as 97% at PRKR and 94% on CAMKK1. In addition, the “% control activity remaining” value in the assay on FLT3(ITD) is given as 5.6%.

`O=C(CN1CCOCC1)N[C@H]1CC[C@H](Nc2cc(Cl)nn3c(-c4ccc5[nH]ncc5c4)cnc23)CC1` [compound 26]: the remaining binding at 1 µM in [1] was found to be 55%; at GRK4 it was 79%; at FRK, 96%; on MEK5, 95%; on EPHA2, 99%; at VEGFR2, 35%. The remaining binding at 1 µM on STK36 is 95%; at p38-gamma, 91%; on WEE1, 100%; on TIE1 it was 67%; in assay [2] it was 52%; at HIPK1, 0.45%. In addition, the figures for the remaining binding at 1 µM on PRKR and at CAMKK1 were 97% and 52%, respectively. For the same compound, the “% control activity remaining” value in the assay with FLT3(ITD) came out at 0.25%.

`CN1CCC(CNc2cc(Cl)nn3c(-c4cc5nc(Nc6ccccc6)[nH]c5cc4F)cnc23)CC1` [compound 31, 6-Chloro-3-(6-fluoro-2-(phenylamino)-1H-benzo[d]imidazol-5-yl)-N-((1-methylpiperidin-4-yl)methyl)imidazo[1,2-b]pyridazin-8-amine]: the remaining binding at 1 µM in [1] turned out to be 75%; on GRK4 it was 100%; on FRK, 92%; at MEK5, 71%; at EPHA2, 94%; on VEGFR2, 71%. For the same compound, the remaining binding at 1 µM on STK36 is 93%; at p38-gamma, 83%; on WEE1, 100%; on TIE1, 84%; in [2], 78%; at HIPK1, 74%. Also, the remaining binding at 1 µM came out at 81% at PRKR and 98% on CAMKK1. Also, the “% control activity remaining” value in the assay on FLT3(ITD) turned out to be 91%.
